From PMC6264224, “A Practical Approach to New (5Z) 2-Alkylthio-5-arylmethylene-1-methyl-1,5-dihydro-4H-imidazol-4-one Derivatives” (Molecules, 2011)

**Q.** With COc1ccc(/C=C2/C(=O)NC(=S)N2C)cc1O [4d, (5Z)-5-(3-Hydroxy-4-methoxybenzylidene)-1-methyl-2-thioxoimidazolidin-4-one] as the molecule, how does the melting point read?
**A.** 203 to 205 °C
